# Results taken from PubChem BioAssay (NCI).
#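 Results reflect a 48-hour exposure of cells in 96-well plates to compound at five concentrations. GI50 = concentration required for 50% inhibition of growth. The concentration for full growth arrest is given as TGI.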
# What was measured:
# Test in all cases: NCI tumour cell line growth inhibition, 48 h
# [1] = test system: HCC-2998 colon
# [2] = test system: HCT-116 colon
# [3] = test system: SF-295 CNS
# [4] = test system: K-562 leukemia
# [5] = test system: HCT-15 colon
# [6] = test system: UACC-62 melanoma
# [7] = test system: OVCAR-4 ovarian
# [8] = test system: NCI-H460 lung
# [9] = test system: SK-OV-3 ovarian
# [10] = test system: SK-MEL-5 melanoma
# [11] = test system: RXF 393 renal
# [12] = test system: SK-MEL-28 melanoma
# [13] = test system: MDA-MB-231 breast
# [14] = test system: UACC-257 melanoma
# [15] = test system: SF-539 CNS
# [16] = test system: LOX IMVI melanoma
# [17] = test system: M14 melanoma
# [18] = test system: NCI-H23 lung
# [19] = test system: NCI-H522 lung
# [20] = test system: SNB-19 CNS
# [21] = test system: OVCAR-8 ovarian
# [22] = test system: A498 renal
# [23] = test system: UO-31 renal
# [24] = test system: MCF7 breast
# [25] = test system: U251 CNS
# [26] = test system: SW-620 colon
# [27] = test system: DU-145 prostate
# [28] = test system: PC-3 prostate
# [29] = test system: KM12 colon
# [30] = test system: CAKI-1 renal
# [31] = test system: TK-10 renal
# [32] = test system: OVCAR-3 ovarian
# [33] = test system: OVCAR-5 ovarian
# [34] = test system: SNB-75 CNS
# [35] = test system: NCI/ADR-RES ovarian
# [36] = test system: MALME-3M melanoma
# [37] = test system: SK-MEL-2 melanoma
# [38] = test system: ACHN renal
# [39] = test system: 786-0 renal
# [40] = test system: A549 NSCLC
# [41] = test system: CCRF-CEM leukemia
# [42] = test system: NCI-H226 lung
# [43] = test system: RPMI-8226 leukemia
# [44] = test system: BT-549 breast
# [45] = test system: MDA-MB-435
# [46] = test system: SN12C renal
# [47] = test system: MOLT-4 leukemia
# [48] = test system: HT29 colon
# [49] = test system: T-47D breast
smiles,measurement,setting,value
COc1cc(/C=C/c2cc(/C=C/c3ccc(O)c(OC)c3)n(C(=O)Cc3ccccc3)n2)ccc1O,GI50,[1],2900 nM
same,TGI,[1],11300 nM
same,GI50,[2],491 nM
same,TGI,[2],6760 nM
same,GI50,[3],2010 nM
same,TGI,[3],6480 nM
same,GI50,[4],434 nM
same,TGI,[4],> 100000 nM
same,GI50,[5],388 nM
same,TGI,[5],3790 nM
same,GI50,[6],883 nM
same,TGI,[6],4760 nM
same,GI50,[7],1110 nM
same,TGI,[7],6390 nM
same,GI50,[8],526 nM
same,TGI,[8],10400 nM
same,GI50,[9],690 nM
same,TGI,[9],2640 nM
same,GI50,[10],532 nM
same,TGI,[10],3170 nM
same,GI50,[11],1140 nM
same,TGI,[11],3480 nM
same,GI50,[12],1210 nM
same,TGI,[12],15100 nM
same,GI50,[13],1450 nM
same,TGI,[13],20900 nM
same,GI50,[14],2680 nM
same,TGI,[14],11500 nM
same,GI50,[15],475 nM
same,TGI,[15],3910 nM
same,GI50,[16],609 nM
same,TGI,[16],9020 nM
same,GI50,[17],399 nM
same,TGI,[17],2640 nM
same,GI50,[18],1560 nM
same,TGI,[18],6590 nM
same,GI50,[19],323 nM
same,TGI,[19],1490 nM
same,GI50,[20],2430 nM
same,TGI,[20],> 100000 nM
same,GI50,[21],1850 nM
same,TGI,[21],16700 nM
same,GI50,[22],2410 nM
same,TGI,[22],6930 nM
same,GI50,[23],466 nM
same,TGI,[23],4310 nM
same,GI50,[24],333 nM
same,TGI,[24],2520 nM
same,GI50,[25],1210 nM
same,TGI,[25],11200 nM
same,GI50,[26],684 nM
same,TGI,[26],10900 nM
same,GI50,[27],1480 nM
same,TGI,[27],8630 nM
same,GI50,[28],915 nM
same,TGI,[28],4340 nM
same,GI50,[29],461 nM
same,TGI,[29],> 100000 nM
same,GI50,[30],730 nM
same,TGI,[30],38400 nM
same,GI50,[31],2580 nM
same,TGI,[31],9090 nM
same,GI50,[32],1120 nM
same,TGI,[32],5270 nM
same,GI50,[33],2770 nM
same,TGI,[33],80000 nM
same,GI50,[34],545 nM
same,TGI,[34],3450 nM
same,GI50,[35],792 nM
same,TGI,[35],10900 nM
same,GI50,[36],644 nM
same,TGI,[36],4980 nM
same,GI50,[37],516 nM
same,TGI,[37],2510 nM
same,GI50,[38],419 nM
same,TGI,[38],29200 nM
same,GI50,[39],916 nM
same,TGI,[39],4530 nM
same,GI50,[40],2800 nM
same,TGI,[40],16600 nM
same,GI50,[41],333 nM
same,TGI,[41],> 100000 nM
same,GI50,[42],2670 nM
same,TGI,[42],9880 nM
same,GI50,[43],411 nM
same,TGI,[43],2240 nM
same,GI50,[44],758 nM
same,TGI,[44],3930 nM
same,GI50,[45],218 nM
same,TGI,[45],587 nM
same,GI50,[46],1530 nM
same,TGI,[46],44500 nM
same,GI50,[47],464 nM
same,TGI,[47],> 100000 nM
same,GI50,[48],1660 nM
same,TGI,[48],4500 nM
same,GI50,[49],1330 nM
same,TGI,[49],5170 nM
